Earlier results on one molecule are cited in patent publication US12616655B2, “Topical antibiotic containing pharmaceutical composition for bacterial infections and wound healing” (Vishagan Vanangamudi Sulur, priority 2019, dated 2026).

Usually pKa stands for the negative logarithm of the acid dissociation constant. A word on the solubility: it is the dissolved amount per volume that the medium holds.

The structures appear in SMILES notation. Values after ≈ are worked out from the molar mass of the structure shown. Read-outs that look alike come from different tables or passages of the source.

For series [1] the following is noted: at 22° C.
The conditions of series [2]: through intact human skin.

For `C/C(=C\C(=O)OCCCCCCCCC(=O)O)C[C@@H]1OC[C@H](C[C@@H]2O[C@H]2[C@@H](C)[C@H](C)O)[C@@H](O)[C@H]1O` [Mupirocin], the pKa in series [1] is 5. For the same molecule, the “inhibition of protein and RNA synthesis” value in the series with Staphylococcus aureus is “strongly inhibit”. Besides, the Systemic absorption result in series [2] is reported as “minimal”. The solubility was 500 µg/mL (≈ 999 µM) (in alcohol at 20° C.) and 1000 µg/mL (≈ 2000 µM) (in water at 20° C.).
